For one assay, the system named is hexobarbital oxidase. Nature of the assay: in vivo hexobarbital oxidase activity: hexobarbital sleeping time in rats (enzyme induction). Further details: species or system male Wistar rats. To be noted: 40 mg./kg. oral; for Difference % (period of sleep vs. control): 24 hours, vs. control group, difference greater than 25% regarded as biologically significant; for Period of sleep, min. ± standard error: hexobarbital sodium 40 mg./kg. i.v. 24 hours later, control 28.50 ± 3.12 min. The method, then: The enzyme-inducing effects of the new compounds were examined under in vivo conditions by determining the hexobarbital oxidase activity. The active agents of the formula (I) were administered to male Wistar rats weighing 50 to 60 g. in oral dosages of 40 mg./kg. The effect appears 24 hours after the administration of the enzyme-inducing substance. At that time the inactivation rate of hexobarbital was determined by administering intravenously 40 mg./kg. of hexobarbital sodium into the animals and measuring the time elapsed between the administration and the reappearance of the righting reflex. The period of sleep observed for the animals treated with the new compounds was compared to that observed in the control group (the animals belonging to the control group were treated with carrier substance only).
24 Hours after the administration of the enzyme-inducing compounds the in vivo inactivation of hexobarbital accelerates, which is evidenced by the shortening of the period of sleep. The results were expressed as percentage differences with respect to the controls. On the basis of the preliminary experiments a difference greater than 25% was regarded to be biologically significant.

A further assay relates to hexobarbital. Briefly: biological half life-time of hexobarbital (UV spectrophotometry of plasma). To be noted: half-life of hexobarbital in treated rats, control 38 min.

From patent US4021421A, “Benzodiazepine derivatives” (Richter Gedeon Vegyeszeti Gyar Rt., priority 1974, dated 1977) come the findings set out here.

Regarding `O=NN1CC(=O)Nc2ccc([N+](=O)[O-])cc2C1c1ccccc1` (stereo not drawn) [Example 2, 4-Nitroso-5-phenyl-7-nitro-1,3,4,5-tetrahydro-2H-1,4-benzodiazepine-2-one], in the assay with hexobarbital oxidase, the “Difference % (period of sleep vs. control)” value (from here on “Difference %”) was -51% and the “Period of sleep, min. ± standard error” value was determined as 13.97 ± 2.10 min.

Regarding `CN1C(=O)CN(N=Cc2ccccc2)C(c2ccccc2)c2cc(Cl)ccc21` (stereo not drawn) [Example 5, 1-Methyl-4-benzalamino-5-phenyl-7-chloro-1,3,4,5-tetrahydro-2H-1,4-benzodiazepine-2-one], the “T1/2 (biological half life-time of hexobarbital)” value with hexobarbital stood at 26 min. Besides, in the assay on hexobarbital oxidase, the “Difference %” value is listed as -58% and the “Period of sleep, min. ± standard error” value stood at 11.96 ± 1.38 min.

`CC(=O)NN1CC(=O)N(C)c2ccc(Cl)cc2C1c1ccccc1` (stereo not drawn) [Example 13, 1-Methyl-4-acetylamino-5-phenyl-7-chloro-1,3,4,5-tetrahydro-2H-1,4-benzodiazepine-2-one]: in the assay with hexobarbital oxidase, the “Difference %” value is recorded as -29% and the “Period of sleep, min. ± standard error” value was found to be 20.24 ± 2.17 min.

In the case of `CN1C(=O)CN(N=O)C(c2ccccc2)c2cc(Cl)ccc21` (stereo not drawn) [Example 1, 1-Methyl-4-nitroso-5-phenyl-7-chloro-1,3,4,5-tetrahydro-2H-1,4-benzodiazepine-2-one], in the assay on hexobarbital oxidase, the “Difference %” value is recorded as -42% and the “Period of sleep, min. ± standard error” value stood at 16.53 ± 1.93 min.

In the case of `CN1C(=O)CN(N=Cc2ccc(O)cc2)C(c2ccccc2)c2cc(Cl)ccc21` (stereo not drawn) [Example 10, 1-Methyl-4-(p-hydroxy-benzalamino)-5-phenyl-7-chloro-1,3,4,5-tetrahydro-2H-1,4-benzodiazepine-2-one], in the assay with hexobarbital oxidase, the “Difference %” value was -41% and the “Period of sleep, min. ± standard error” value amounted to 16.82 ± 1.84 min.

With `CN1C(=O)CN(N)C(c2ccccc2)c2cc(Cl)ccc21` (stereo not drawn) [Example 3, 1-Methyl-4-amino-5-phenyl-7-chloro-1,3,4,5-tetrahydro-2H-1,4-benzodiazepine-2-one], in the assay with hexobarbital oxidase, the “Difference %” value is -35% and the “Period of sleep, min. ± standard error” value was found to be 18.57 ± 2.06 min.

Consider `CN1C(=O)CN(NC(=O)CCl)C(c2ccccc2)c2cc(Cl)ccc21` (stereo not drawn) [Example 12, 1-Methyl-4-chloroacetamino-5-phenyl-7-chloro-1,3,4,5-tetrahydro-2H-1,4-benzodiazepine-2-one], for which, in the assay on hexobarbital oxidase, the “Difference %” value was -33% and the “Period of sleep, min. ± standard error” value is 19.10 ± 2.28 min.
